Measured values taken from patent US20260102418A1, “An anti-influenza virus derivative and uses thereof” (Shijiazhuang Discovery Medicine Technology Co., Ltd., priority 2022, published 2026).
Entries after “also recorded” stand apart in the source; their conditions may differ. Like-named read-outs stand apart in the source and are kept apart here.

Columns and labels:
[1] = test system: influenza virus (A/HPB/359/95 (H3N2)); assay: organism not typed; settings: MDCK, read-out: Anti-IAV EC50
in vitro = settings: dog
A/PR/8/34 (H1N1) virus = assay: Virus titer test and histopathological examination in influenza virus mouse model; type: in vivo, C57BL/6J mice; settings: for lung tissue pathology examination: left lung 5 days after infection
Procedure: Fifteen C57BL/6J mice (female, 8 weeks, 18-20 g) were divided into 5 groups (group A, group B, group C, group D and group E), 3 in each group. After intranasal inoculation with a semi-lethal dose of A/PR/8/34 (H1N1) virus, group A/group B/group C were respectively given intragastric administration of test drugs (group A: DS1494; group B: DS1833; group C: M42, all suspended in 1% methylcellulose solution, and the dosage of each group was 2 mg/kg), group D was given oral gavage with the same volume of 1% methylcellulose solution, and group E was given intraperitoneal injection of test drug DS1835 (the dosage was 1.4 mg/kg, dissolved in physiological saline), and each group was given drug administration once a day. Lung tissue samples were collected 5 days after infection, the left lung was examined for pathology, and the right lung was homogenized for TCID50 determination.

A/PR/8/34 (H1N1) (PR8) = assay: Antiviral CPE assay in MDCK, other influenza strains; type: cell-based, influenza A virus (IAV); settings: Influenza A virus, CPE method
A/WSN/33 (H1N1) = assay: as above; type: cell-based, influenza A virus (IAV); settings: Influenza A virus, CPE method
[2] = test system: B/Beijing-Haidian/1386/2013 (BV); assay: as above; type: cell-based; settings: Influenza B virus, CPE method
[3] = test system: B/Massachusetts/2/2012 (BY-3); assay: as above; type: cell-based; settings: Influenza B virus
[4] = Cytotoxicity test in MDCK cells (CPE method, 72 hours); settings: dog
MDCK cells = assay: as above; settings: read-out: TC50 in MDCK; MDCK cells, 72 hours, CPE method
[5] = test system: influenza virus (A/HPB/359/95 (H3N2))
[6] = PR8 = A/Puerto Rico/8/1934(H1N1), MDCK
[7] = HD = B/Beijing-Haidian/1386/2013 (BV)
[8] = 2 mg/kg intragastric once a day

Compound: O=C1c2c(OCOP(=O)(OCc3ccccc3)OCc3ccccc3)c(=O)ccn2N([C@@H]2c3ccccc3[Se]Cc3c2ccc(F)c3F)[C@@H]2COC3(CC3)CN12 [DS1832]
- EC50 [1]: 0.21 ± 0.03 nM
- CC50 (in vitro): > 20 µM

Compound: O=C1c2c(O)c(=O)ccn2N([C@@H]2c3ccccc3[Se]Cc3c2ccc(F)c3F)[C@@H]2COC3(CC3)CN12 [DS1835]
- lung tissue pathology examination (A/PR/8/34 (H1N1) virus; 1.4 mg/kg intraperitoneal injection once a day): clear bronchial structure, and the epithelial cells had complete morphology and neat arrangement
- lung tissue virus titer (A/PR/8/34 (H1N1) virus; 1.4 mg/kg intraperitoneal injection once a day, right lung TCID50 5 days after infection): lowest lung tissue virus titer

Compound: O=C1c2c(OCOP(=O)(O)O)c(=O)ccn2N([C@@H]2c3ccccc3[Se]Cc3c2ccc(F)c3F)[C@@H]2COC3(CC3)CN12 [DS14915]
- EC50 (A/PR/8/34 (H1N1) (PR8); [6]): 0.00097 ± 0.00036 µM
- EC50 (A/WSN/33 (H1N1)): 0.00113 ± 0.00031 µM
- EC50 [2, 7]: 0.00247 ± 0.00048 µM
- EC50 ([3]; MDCK): 0.00218 ± 0.00056 µM

Compound: O=C1c2c(O)c(=O)ccn2N([C@@H]2c3ccccc3SCc3c2ccc(F)c3F)[C@@H]2COC3(CC3)CN12 [Compound M41, reference compound]
- EC50 [1]: 0.63 ± 0.03 nM
- CC50 at 72 h ([4]; MDCK cells): > 20 µM

Compound: [2H][C@@]1(N2[C@@H]3COC4(CC4)CN3C(=O)c3c(OP(=O)(O)O)c(=O)ccn32)c2ccccc2[Se]Cc2c1ccc(F)c2F [DS14911]
- EC50 [1]: 0.19 ± 0.03 nM
- CC50 (in vitro): > 20 µM

Compound: [2H][C@@]1(N2[C@@H]3COC4(CC4)CN3C(=O)c3c(O)c(=O)ccn32)c2ccccc2[Se]Cc2c1ccc(F)c2F [DS1492]
- EC50 [1]: 0.14 ± 0.03 nM
- CC50 (in vitro): > 20 µM

Compound: [2H]C([2H])([2H])OC(=O)OCOc1c2n(ccc1=O)N([C@@H]1c3ccccc3SCc3c1ccc(F)c3F)[C@@H]1COC3(CC3)CN1C2=O [DS1837]
- EC50 (A/PR/8/34 (H1N1) (PR8); [6]): 0.00126 ± 0.00047 µM
- EC50 [1]: 0.65 ± 0.03 nM
- EC50 (A/WSN/33 (H1N1)): 0.00136 ± 0.00022 µM
- EC50 [2, 7]: 0.00565 ± 0.00073 µM
- CC50 at 72 h (in vitro): > 20 µM
- EC50 ([3]; MDCK): 0.00588 ± 0.00091 µM

Compound: COC(=O)OCOc1c2n(ccc1=O)N([C@@H]1c3ccccc3SCc3c1ccc(F)c3F)[C@@H]1COC3(CC3)CN1C2=O [Compound M42, reference compound]
- EC50 (A/PR/8/34 (H1N1) (PR8); [6]): 0.00193 ± 0.00055 µM
- EC50 [1]: 0.76 ± 0.04 nM
- EC50 (A/WSN/33 (H1N1)): 0.00228 ± 0.00042 µM
- EC50 [2, 7]: 0.00621 ± 0.00109 µM
- CC50 (in vitro): > 20 µM
- EC50 ([3]; MDCK): 0.00724 ± 0.00136 µM
- lung tissue pathology examination (A/PR/8/34 (H1N1) virus; [8]): clear bronchial structure, and the epithelial cells were arranged neatly with a small amount of inflammatory cell infiltration; also recorded: a small amount of epithelial cell necrosis was observed

Compound: O=C1c2c(OCOP(=O)(O)O)c(=O)ccn2N([C@@H]2c3ccccc3[Se]Cc3c2ccc(F)c3F)[C@@H]2COC3(CC3)CN12 [DS1497]
- EC50 [1]: 0.37 ± 0.04 nM
- CC50 (in vitro): > 20 µM

Compound: CCOP(=O)(OCC)OCOc1c2n(ccc1=O)N([C@@H]1c3ccccc3[Se]Cc3c1ccc(F)c3F)[C@@H]1COC3(CC3)CN1C2=O [DS1831]
- EC50 [1]: 0.19 ± 0.02 nM
- CC50 (in vitro): > 20 µM

Compound: COC(=O)OCOc1c2n(ccc1=O)N([C@]1(C)c3ccccc3[Se]Cc3c1ccc(F)c3F)[C@@H]1COC3(CC3)CN1C2=O [DS1496]
- EC50 [1]: 0.43 ± 0.02 nM
- CC50 (in vitro): > 20 µM

Compound: O=C1c2c(OP(=O)(O)O)c(=O)ccn2N([C@@H]2c3ccccc3[Se]Cc3c2ccc(F)c3F)[C@@H]2COC3(CC3)CN12 [DS14910]
- EC50 [1]: 0.21 ± 0.02 nM
- CC50 (in vitro): > 20 µM

Compound: [2H][C@@]1(N2[C@@H]3COC4(CC4)CN3C(=O)c3c(OCOP(=O)(O)O)c(=O)ccn32)c2ccccc2[Se]Cc2c1ccc(F)c2F [DS1498]
- EC50 [1]: 0.31 ± 0.02 nM
- CC50 at 72 h [4]: > 20 µM

Compound: O=C1c2c(OCOP3(=O)OCCCO3)c(=O)ccn2N([C@@H]2c3ccccc3[Se]Cc3c2ccc(F)c3F)[C@@H]2COC3(CC3)CN12 [DS15812]
- EC50 [1]: 0.25 ± 0.03 nM
- CC50 (in vitro): > 20 µM

Compound: [2H]C([2H])([2H])OC(=O)OCOc1c2n(ccc1=O)N([C@@H]1c3ccccc3[Se]Cc3c1ccc(F)c3F)[C@@H]1COC3(CC3)CN1C2=O [DS1833]
- EC50 (A/PR/8/34 (H1N1) (PR8); [6]): 0.00089 ± 0.00022 µM
- EC50 [1]: 0.11 ± 0.02 nM
- EC50 (A/WSN/33 (H1N1)): 0.00102 ± 0.00027 µM
- EC50 [2, 7]: 0.00338 ± 0.00067 µM
- CC50 (in vitro): > 20 µM
- EC50 ([3]; MDCK): 0.00277 ± 0.00075 µM
- lung tissue pathology examination (A/PR/8/34 (H1N1) virus; [8]): clear bronchial structure, and the epithelial cells were arranged neatly with a small amount of inflammatory cell infiltration
- lung tissue virus titers compared with M42 at the same dose (A/PR/8/34 (H1N1) virus; 2 mg/kg intragastric once a day, right lung TCID50 5 days after infection): lower

Compound: C[C@@]1(N2[C@@H]3COC4(CC4)CN3C(=O)c3c(OCOP(=O)(O)O)c(=O)ccn32)c2ccccc2[Se]Cc2c1ccc(F)c2F [DS1499]
- EC50 [1]: 0.29 ± 0.02 nM
- CC50 (in vitro): > 20 µM

Compound: COC(=O)OCOc1c2n(ccc1=O)N([C@@H]1c3ccccc3[Se]Cc3c1ccc(F)c3F)[C@@H]1COCCN1C2=O [Compound M43, reference compound]
- EC50 [2, 7]: 0.00839 ± 0.00175 µM
- EC50 ([3]; MDCK): 0.0113 ± 0.00253 µM

Compound: NC(=O)c1ncn([C@@H]2O[C@H](CO)[C@@H](O)[C@H]2O)n1 [Ribavirin, reference compound]
- EC50 (A/PR/8/34 (H1N1) (PR8); PR8, MDCK, Ribavirin in μM): 29.6 ± 3.11 µM
- EC50 (A/WSN/33 (H1N1); Ribavirin in μM): 27.2 ± 2.79 µM
- EC50 ([2]; HD, Ribavirin in μM): 34.5 ± 4.85 µM
- EC50 ([3]; BY-3, MDCK, CPE method, Ribavirin in μM, read-out: EC50): 33.1 ± 3.29 µM

Compound: [2H]C([2H])([2H])OC(=O)OCOc1c2n(ccc1=O)N([C@]1([2H])c3ccccc3SCc3c1ccc(F)c3F)[C@@H]1COC3(CC3)CN1C2=O [DS1838]
- EC50 [1]: 0.52 ± 0.04 nM
- CC50 at 72 h (in vitro): > 20 µM

Compound: Baricitinib
- CC50 (MDCK cells): > 20 µM

Compound: [2H][C@@]1(N2[C@@H]3COC4(CC4)CN3C(=O)c3c(OCOC(=O)OC)c(=O)ccn32)c2ccccc2[Se]Cc2c1ccc(F)c2F [DS1495]
- EC50 [1]: 0.28 ± 0.03 nM
- CC50 (in vitro): > 20 µM

Compound: O=C1c2c(O)c(=O)ccn2N([C@@H]2c3ccccc3[Se]Cc3c2ccc(F)c3F)[C@@H]2COC3(CC3)CN12 [DS1491]
- therapeutic index (TC50/EC50) [5]: higher therapeutic index
- EC50 [1]: 0.2 ± 0.01 nM
- CC50 (in vitro): > 20 µM

Compound: C[C@@]1(N2[C@@H]3COC4(CC4)CN3C(=O)c3c(O)c(=O)ccn32)c2ccccc2[Se]Cc2c1ccc(F)c2F [DS1493]
- therapeutic index (TC50/EC50) [5]: higher therapeutic index
- EC50 [1]: 0.1 ± 0.01 nM
- CC50 (in vitro): > 20 µM

Compound: C[C@@]1(N2[C@@H]3COC4(CC4)CN3C(=O)c3c(OP(=O)(O)O)c(=O)ccn32)c2ccccc2[Se]Cc2c1ccc(F)c2F [DS14912]
- EC50 [1]: 0.17 ± 0.01 nM
- CC50 (in vitro): > 20 µM

Compound: [2H]C([2H])([2H])OC(=O)OCOc1c2n(ccc1=O)N([C@]1([2H])c3ccccc3[Se]Cc3c1ccc(F)c3F)[C@@H]1COC3(CC3)CN1C2=O [DS1834]
- EC50 [1]: 0.1 ± 0.01 nM
- CC50 (in vitro): > 20 µM
